Active and inactive are the calls of the source. The calls are words filed in the database; no cut-off is given here.
How the values were obtained:
Rattus norvegicus [1] = assay: In vivo percent change in the total cholesterol after consumption of a single high fat, high cholesterol meal by rats; type: functional
O-acyltransferase = O-acyltransferase (Oryctolagus cuniculus, UniProt G1SFD9); assay: In vitro inhibitory activity against Acyl coenzyme A:cholesterol acyltransferase in intestinal microsomes isolated from cholesterol fed rabbits (IAI).; set-up: species or system Intestine
Rattus norvegicus [2] = assay: Tested for the percentage change in HDL in pre-established hypercholesterolemia (CPCC) model at a dose of 10 mg/kg.; type: functional
Rattus norvegicus [3] = assay: Tested for the percentage change in HDL in pre-established hypercholesterolemia (CPCC) model at a dose of 3 mg/kg; type: functional
Rattus norvegicus [4] = assay: Tested for the percentage change in non HDL-C in pre-established hypercholesterolemia (CPCC) model fat at a dose of 3 mg/kg; type: functional
Rattus norvegicus [5] = assay: Tested for the percentage change in non HDL-C in pre-established hypercholesterolemia (CPCC) model at a dose of 1 mg/kg; type: functional
Rattus norvegicus [6] = assay: Tested for the percentage change in non HDL-C in pre-established hypercholesterolemia (CPCC) model at dose of 10 mg/kg.; type: functional
Rattus norvegicus [7] = assay: Tested for the percentage change in HDL in pre-established hypercholesterolemia (CPCC) model at a dose of 1 mg/kg; No change; type: functional, organism-based; set-up: dose 1 mg/kg
Rattus norvegicus [8] = assay: Tested for the percentage change in non HDL-C in pre-established hypercholesterolemia (CPCC) model at a dose of 30 mg/kg; type: functional
Rattus norvegicus [9] = assay: Tested for the percentage change in non HDL in pre-established hypercholesterolemia (CPCC) model fat at a dose of 30 mg/kg; Non significant; type: functional, organism-based; set-up: dose 30 mg/kg
Rattus norvegicus [10] = assay: Tested for the percentage change in non HDL in pre-established hypercholesterolemia (CPCC) model fat at a dose of 30 mg/kg; type: functional
Rattus norvegicus [11] = assay: Tested for the percentage change in non HDL-C in pre-established hypercholesterolemia (CPCC) model at dose of 3 mg/kg.; type: functional
Rattus norvegicus [12] = assay: Tested for the percentage change in non HDL-C in pre-established hypercholesterolemia (CPCC) model at a dose of 0.1 mg/kg; type: functional
Rattus norvegicus [13] = assay: Tested for the percentage change in HDL in pre-established hypercholesterolemia (CPCC) model at a dose of 1 mg/kg; type: functional
Rattus norvegicus [14] = assay: Tested for the percentage change in HDL in pre-established hypercholesterolemia (CPCC) model at a dose of 3 mg/kg.; type: functional
Rattus norvegicus [15] = assay: Tested for the percentage change in non HDL-C in pre-established hypercholesterolemia (CPCC) model fat at a dose of 1 mg/kg; type: functional
Rattus norvegicus [16] = assay: Tested for the percentage change in HDL in pre-established hypercholesterolemia (CPCC) model at a dose of 0.1 mg/kg; type: functional
Rattus norvegicus [17] = assay: Tested for the percentage change in HDL in pre-established hypercholesterolemia (CPCC) model fat at a dose of 30 mg/kg; type: functional
Rattus norvegicus [18] = assay: Tested for the percentage change in non HDL-C in pre-established hypercholesterolemia (CPCC) model at a dose of 1 mg/kg (p<0.05); type: functional
Rattus norvegicus [19] = assay: Tested for the percentage change in HDL in pre-established hypercholesterolemia (CPCC) model at a dose of 10 mg/kg (p<0.05); type: functional
Rattus norvegicus [20] = assay: Tested for the percentage change in HDL in pre-established hypercholesterolemia (CPCC) model at a dose of 1 mg/kg (p<0.05); type: functional
Rattus norvegicus [21] = assay: Tested for the percentage change in non HDL-C in pre-established hypercholesterolemia (CPCC) model fat at a dose of 3 mg/kg (p<0.05); type: functional
Rattus norvegicus [22] = assay: Tested for the percentage change in non HDL-C in pre-established hypercholesterolemia (CPCC) model at dose of 10 mg/kg (p<0.05); type: functional
Rattus norvegicus [23] = assay: Tested for the percentage change in HDL in pre-established hypercholesterolemia (CPCC) model at a dose of 3 mg/kg (p<0.05); type: functional

Sequence of O-acyltransferase (G1SFD9 1-524): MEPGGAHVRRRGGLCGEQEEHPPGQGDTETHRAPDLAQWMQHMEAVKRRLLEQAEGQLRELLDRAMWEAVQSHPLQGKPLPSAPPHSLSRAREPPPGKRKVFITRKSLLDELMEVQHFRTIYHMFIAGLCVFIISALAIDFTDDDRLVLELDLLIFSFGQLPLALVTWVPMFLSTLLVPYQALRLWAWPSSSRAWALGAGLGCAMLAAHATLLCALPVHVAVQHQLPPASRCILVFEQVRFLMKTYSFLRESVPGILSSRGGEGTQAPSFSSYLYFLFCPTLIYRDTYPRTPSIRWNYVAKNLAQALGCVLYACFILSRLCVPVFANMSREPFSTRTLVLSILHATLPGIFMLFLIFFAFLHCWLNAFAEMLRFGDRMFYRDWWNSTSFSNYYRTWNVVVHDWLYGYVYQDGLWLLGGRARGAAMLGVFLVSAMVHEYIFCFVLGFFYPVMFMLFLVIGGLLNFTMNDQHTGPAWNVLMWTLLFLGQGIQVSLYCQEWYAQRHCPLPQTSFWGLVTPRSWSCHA

Compound | IC50 (O-acyltransferase) [nM] | Change (Rattus norvegicus [1]) [%] | also measured
CC(C)c1cccc(C(C)C)c1NC(=O)CC(=O)O | > 5000 | – | –
CC(C)c1cccc(C(C)C)c1NC(=O)CC(=O)OC(c1ccccn1)c1ccccn1 | > 5000 | -55 | –
COc1cccc(OC)c1OC(=O)CC(=O)Nc1c(C(C)C)cccc1C(C)C | 1700 | 5 | –
CC(C)c1cccc(C(C)C)c1OC(=O)CC(=O)Nc1ccc(F)cc1F | 6400 | – | –
COc1cc(OC)c(NC(=O)CC(=O)Oc2c(C(C)C)cccc2C(C)C)c(OC)c1 | 1000 | -29 | –
CCCCCCCCOC(=O)CC(=O)Nc1c(C(C)C)cccc1C(C)C | 260 | -43 | –
CC(C)c1cccc(C(C)C)c1OC(=O)CC(=O)Nc1ccccc1 | > 5000 | – | –
Cc1cccc(C)c1NC(=O)CC(=O)Oc1c(C(C)C)cccc1C(C)C | 210 | 5 | –
COc1cc(OC)c(OC(=O)CC(=O)Nc2c(C(C)C)cccc2C(C)C)c(OC)c1 | 320 | -9 | –
CC(C)c1cccc(C(C)C)c1NC(=O)CC(=O)OC(c1ccccc1)c1ccccn1 (stereo not given) | > 5000 | – | –
CC(C)c1cccc(C(C)C)c1OC(=O)CC(=O)Nc1c(F)cccc1F | 6200 | 4 | –
CCOC(=O)CC(=O)Nc1c(C(C)C)cccc1C(C)C | 1800 | – | –
CCCCCCOC(=O)CC(=O)Nc1c(C(C)C)cccc1C(C)C | 810 | -29 | –
CC(C)c1cccc(C(C)C)c1OC(=O)CC(=O)Nc1c(F)cc(F)cc1F | > 5000 | -9 | –
CC(C)c1cccc(C(C)C)c1NC(=O)CC(=O)OC(C)(C)C | 130 | -24 | –
CCCCCCCCCCCCC(C)OC(=O)CC(=O)Nc1c(C(C)C)cccc1C(C)C (stereo not given) | – | -54 | Change (Rattus norvegicus [18]): -54%; Change (Rattus norvegicus [19]): 114%; Change (Rattus norvegicus [20]): 64%; Change (Rattus norvegicus [21]): -73%; Change (Rattus norvegicus [22]): -83%; Change (Rattus norvegicus [23]): 157%

Further compounds by falling IC50 (O-acyltransferase), results first:

IC50 (O-acyltransferase) [nM] | Compound | Change (Rattus norvegicus [1]) [%] | also measured
71 | CC(C)c1cccc(C(C)C)c1OC(=O)CC(=O)Nc1c(N(C)C)cccc1N(C)C | -29 | –
67 | CC(C)c1cccc(C(C)C)c1NC(=O)CC(=O)Oc1c(-c2ccccc2)cccc1-c1ccccc1 | -41 | –
53 | CCCCCCCCCCCCCCCCCCOC(=O)CC(=O)Nc1c(C(C)C)cccc1C(C)C | -16 | –
53 | CCCCCCCCCCOC(=O)CC(=O)Nc1c(C(C)C)cccc1C(C)C | -37 | –
42 | CC(C)c1cccc(C(C)C)c1NC(=O)CC(=O)Oc1c(C(C)C)cccc1C(C)C | <-50 | Change (Rattus norvegicus [8]): 9%; Change (Rattus norvegicus [9]): Not significant
38 | CC(C)c1cccc(C(C)C)c1NC(=O)CC(=O)OC(c1ccccc1)c1ccccc1 | -41 | –
35 | CCCCCCCCCCCCCCCCOC(=O)CC(=O)Nc1c(C(C)C)cccc1C(C)C | -56 | –
27 | CCCCCC(C)OC(=O)CC(=O)Nc1c(C(C)C)cccc1C(C)C (stereo not given) | -46 | –
15 | CCCCCCCCCCCCCCOC(=O)CC(=O)Nc1c(C(C)C)cccc1C(C)C | -61 | Change (Rattus norvegicus [10]): 6%; Change (Rattus norvegicus [8]): -11%
15 | CCCCC(C)(C)OC(=O)CC(=O)Nc1c(C(C)C)cccc1C(C)C | -52 | –
12 | CCCCCCCCC(C)OC(=O)CC(=O)Nc1c(C(C)C)cccc1C(C)C (stereo not given) | -61 | –
12 | CCCCCCCCCCCCC(C)(C)OC(=O)CC(=O)Nc1c(C(C)C)cccc1C(C)C | -72 | Change (Rattus norvegicus [11]): -19%; Change (Rattus norvegicus [12]): -11%; Change (Rattus norvegicus [13]): 6%; Change (Rattus norvegicus [14]): -13%; Change (Rattus norvegicus [15]): -19%; Change (Rattus norvegicus [16]): -12%
11 | CCCCCCCCCCCCCCC(C)OC(=O)CC(=O)Nc1c(C(C)C)cccc1C(C)C (stereo not given) | -60 | Change (Rattus norvegicus [11]): -2%; Change (Rattus norvegicus [12]): -8%; Change (Rattus norvegicus [13]): 13%; Change (Rattus norvegicus [14]): -24%; Change (Rattus norvegicus [15]): 7%; Change (Rattus norvegicus [16]): -12%
11 | CCCCCCCCCCCCOC(=O)CC(=O)Nc1c(C(C)C)cccc1C(C)C | -52 | Change (Rattus norvegicus [17]): -21%; Change (Rattus norvegicus [8]): -8%
6 | CCCCCCCCCCC(C)OC(=O)CC(=O)Nc1c(C(C)C)cccc1C(C)C (stereo not given) | -70 | Change (Rattus norvegicus [2]): 29%; Change (Rattus norvegicus [3]): 36%; Change (Rattus norvegicus [4]): -40%; Change (Rattus norvegicus [5]): -15%; Change (Rattus norvegicus [6]): -51%; Change (Rattus norvegicus [7]): inactive
4 | CCCCCCCCCCCC[C@@H](C)OC(=O)CC(=O)Nc1c(C(C)C)cccc1C(C)C | -67 | –
4 | CCCCCCCCCCCC[C@H](C)OC(=O)CC(=O)Nc1c(C(C)C)cccc1C(C)C | -66 | –
